Measurements published in patent US6060485A, “Arylacetic amide derivative or salt thereof, and pharmaceutical comprising it” (SSP Co., Ltd., priority 1997, dated 2000).
Where a name gives a salt, the structure may show the parent alone. Read-outs that look alike come from different tables or passages of the source.

Key:
[1] = tested on: carbachol-induced hypersialosis; assay: Action against carbachol-induced hypersialosis (salivation, oral); assay type: in vivo, SD male rats; settings: for ED50: Rattus norvegicus, read-out: Salivation inhibitory action ID50; for Selectivity: bladder over salivation, propiverine hydrochloride = 1.0; for Salivation inhibitory action / Bladder contraction inhibitory action: ratio of ID50 values
Description: Action against carbachol-induced hypersialosis Testing method
A test compound was orally administered to each of SD male rats weighing 100 to 150 g. Thirty minutes later, 0.1 mg/kg of carbachol was intraperitoneally administered. Immediately after the administration of carbachol, the rat was fixed by hands under non-anesthesia and under this condition, the saliva was wiped off with a cotton ball for 10 minutes. The weight of the saliva so obtained was measured.

[2] = tested on: acetylcholine-induced bladder contraction; assay: Action against acetylcholine-induced bladder contraction (intraduodenal); assay type: in vivo, SD male rats; settings: Rattus norvegicus, 2 h, read-out: Bladder contraction inhibitory action ID50
Description: Action against acetylcholine-induced bladder contraction Testing method
SD male rats weighing 230 to 390 g were each fixed on its back under intraperitoneal anesthesia with 500 mg/kg of urethane and 50 mg/kg of α-chloralose. Then, its bladder was exposed by midline abdominal incision. Into the top part of the bladder, a polyethylene tube filled with physiological saline was inserted and intracystic pressure was measured. Into the femoral vein, a venous cannula for administration of a drug was inserted, through which 10 μg/kg of acetylcholine were administered to induce bladder contraction. Then, acetylcholine was administered at intervals of 10 minutes. After the bladder contraction by acetylcholine became stable, the stomach was subjected to midline incision and the test compound was intraduodenally administered using an injection needle.
The bladder contraction was measured as a difference of intracystic pressure before and after the administration of acetylcholine.

[3] = SD male rats, oral, 30 minutes before carbachol 0.1 mg/kg i.p., saliva weight over 10 minutes
[4] = SD male rats, intraduodenal, acetylcholine 10 μg/kg i.v., intracystic pressure, observed 120 minutes

SMILES	ED50 [1, 3] [mg/kg]	Selectivity [1]	Salivation inhibitory action / Bladder contraction inhibitory action [1]	ED50 [2, 4] [mg/kg]	ED50 ([1]; po) [mg/kg]	ED50 [2] [mg/kg]
CCCCOC(C(=O)NC1CCN(Cc2ccccc2)CC1)(c1ccccc1)C(C)C (centres unmarked) [Compound No. 4, N-(1-benzyl-4-piperidinyl)-2-butoxy-3-methyl-2-phenylbutanamide]	56.6	6.2	5.8	9.8	–	–
CCN(CC)CC#CCOC(=O)C(O)(c1ccccc1)C1CCCCC1 (centres unmarked) [Oxybutynin hydrochloride, reference compound]	–	1.1	1.0	–	3.5	3.4
CCCOC(C(=O)OC1CCN(C)CC1)(c1ccccc1)c1ccccc1 [Propiverine hydrochloride, reference compound]	9.2	1.0	0.9	9.9	–	–
CCCOC(C(=O)NC1CCN(Cc2ccccc2)CC1)(c1ccccc1)C(C)C (centres unmarked) [compound 3]	33.9	4.0	3.6	9.4	–	–
CCCOC(C(=O)NC1CCN(Cc2ccccc2)CC1)(c1ccccc1)C1CC1 (centres unmarked) [compound 12]	22.5	2.4	2.3	10	–	–
